Data as given in patent publication US8796289B2 (AbbVie Inc., priority 2011, dated 2014).

These compounds were tested against GST-tagged-Wee1 kinase (Homo sapiens, UniProt P30291) (assay: Wee1 time-resolved fluorescence equilibrium binding assay (displacement of Oregon Green-labeled ATP-competitive kinase probe)).
Method: Wee1 kinase was assayed using a time-resolved fluorescence equilibrium binding assay monitoring displacement of a rapidly reversible Oregon Green-labeled ATP-competitive kinase probe (N-(2-(2-(2-(4-(4-(5-chloro-4-(2-(1-hydroxycyclobutyl)thiazol-5-yl)-1H-pyrrolo[2,3-b]pyridin-2-yl)phenyl)piperazin-1-yl)ethoxy)ethoxy)ethyl)-2′,7′-difluoro-3′,6′-dihydroxy-3-oxo-3H-spiro[isobenzofuran-1,9′-xanthene]-5-carboxamide) by competitive Wee1 inhibitors.

Chain of GST-tagged-Wee1 kinase (P30291 whole entry): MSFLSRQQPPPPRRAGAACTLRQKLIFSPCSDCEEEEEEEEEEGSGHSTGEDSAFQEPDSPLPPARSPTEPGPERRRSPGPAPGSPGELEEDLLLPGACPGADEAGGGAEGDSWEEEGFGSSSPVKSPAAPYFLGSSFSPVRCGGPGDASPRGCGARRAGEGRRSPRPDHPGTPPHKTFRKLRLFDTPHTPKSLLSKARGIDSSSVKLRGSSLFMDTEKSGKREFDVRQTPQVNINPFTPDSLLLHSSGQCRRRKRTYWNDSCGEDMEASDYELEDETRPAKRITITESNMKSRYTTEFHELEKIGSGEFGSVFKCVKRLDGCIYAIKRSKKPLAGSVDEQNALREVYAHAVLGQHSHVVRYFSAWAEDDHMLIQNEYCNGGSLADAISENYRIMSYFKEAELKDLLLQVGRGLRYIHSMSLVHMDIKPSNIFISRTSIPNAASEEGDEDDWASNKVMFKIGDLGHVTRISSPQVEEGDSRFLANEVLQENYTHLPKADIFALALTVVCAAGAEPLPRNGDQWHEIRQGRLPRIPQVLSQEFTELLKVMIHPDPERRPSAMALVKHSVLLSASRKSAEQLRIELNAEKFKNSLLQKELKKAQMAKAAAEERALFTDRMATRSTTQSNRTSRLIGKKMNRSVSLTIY

Structure (SMILES) | Ki [nM]
Cc1nn(-c2c(F)cccc2Cl)c(=O)c2cnc(Nc3ccc4c(c3)CN(C)CC4(C)C)nc12 [Example 311, 6-(2-chloro-6-fluorophenyl)-8-methyl-2-[(2,4,4-trimethyl-1,2,3,4-tetrahydroisoquinolin-7-yl)amino]pyrimido[4,5-d]pyridazin-5(6H)-one] | 1
NCCn1ccc(-c2nn(-c3c(Cl)cccc3Cl)c(=O)c3cnc(Nc4ccc(N5CCNCC5)cc4)nc23)n1 [Example 259, 8-[1-(2-aminoethyl)-1H-pyrazol-3-yl]-6-(2,6-dichlorophenyl)-2-{[4-(piperazin-1-yl)phenyl]amino}pyrimido[4,5-d]pyridazin-5(6H)-one] | 0.2
CN(C)Cc1ccc(Nc2ncc3c(=O)n(-c4ccccc4Cl)nc(-c4cccs4)c3n2)cc1 [Example 209, 6-(2-chlorophenyl)-2-({4-[(dimethylamino)methyl]phenyl}amino)-8-(thiophen-2-yl)pyrimido[4,5-d]pyridazin-5(6H)-one] | 0.8
Cn1cnc(-c2nn(-c3c(Cl)cccc3Cl)c(=O)c3cnc(Nc4ccc5c(c4)CNCC54CC4)nc23)c1 [Example 341, 6-(2,6-dichlorophenyl)-2-(2′,3′-dihydro-1′H-spiro[cyclopropane-1,4′-isoquinolin]-7′-ylamino)-8-(1-methyl-1H-imidazol-4-yl)pyrimido[4,5-d]pyridazin-5(6H)-one] | 1
Cc1cc(Nc2ncc3c(=O)n(-c4ccccc4C)nc(-c4ccccc4)c3n2)ccc1N1CCCN(C(C)C)CC1 [Example 116, 2-{[4-(4-isopropyl-1,4-diazepan-1-yl)-3-methylphenyl]amino}-6-(2-methylphenyl)-8-phenylpyrimido[4,5-d]pyridazin-5(6H)-one] | 0.4
Cc1nn(-c2c(F)cccc2Cl)c(=O)c2cnc(Nc3ccc4c(c3)CNCC4)nc12 [Example 398, 6-(2-chloro-6-fluorophenyl)-8-methyl-2-(1,2,3,4-tetrahydroisoquinolin-7-ylamino)pyrimido[4,5-d]pyridazin-5(6H)-one] | 1
Cc1nn(-c2c(Cl)cccc2Cl)c(=O)c2cnc(Nc3ccc4c(c3)CCNC4(C)C)nc12 [Example 452, 6-(2,6-dichlorophenyl)-2-[(1,1-dimethyl-1,2,3,4-tetrahydroisoquinolin-6-yl)amino]-8-methylpyrimido[4,5-d]pyridazin-5(6H)-one] | 0.16
CN1CCN(c2ccc(Nc3ncc4c(=O)n(-c5c(Cl)cccc5Cl)nc(C5CCNCC5)c4n3)cc2)CC1 [Example 148, 6-(2,6-dichlorophenyl)-2-{[4-(4-methylpiperazin-1-yl)phenyl]amino}-8-(piperidin-4-yl)pyrimido[4,5-d]pyridazin-5(6H)-one] | 16
CC(=O)N1Cc2cc(Nc3ncc4c(=O)n(-c5c(Cl)cccc5Cl)nc(-c5ccccn5)c4n3)ccc2C2(CC2)C1 [Example 375, 2-[(2′-acetyl-2′,3′-dihydro-1′H-spiro[cyclopropane-1,4′-isoquinolin]-7′-yl)amino]-6-(2,6-dichlorophenyl)-8-(pyridin-2-yl)pyrimido[4,5-d]pyridazin-5(6H)-one] | 1.2
Cn1cnc(-c2nn(-c3ccncc3Cl)c(=O)c3cnc(Nc4ccc5c(c4)CNCC54CC4)nc23)c1 [Example 373, 6-(3-chloropyridin-4-yl)-2-(2′,3′-dihydro-1′H-spiro[cyclopropane-1,4′-isoquinolin]-7′-ylamino)-8-(1-methyl-1H-imidazol-4-yl)pyrimido[4,5-d]pyridazin-5(6H)-one] | 69
CC(O)Cn1nc(-c2ccccn2)c2nc(Nc3ccc(N4CCNCC4)cc3)ncc2c1=O (stereo not drawn) [Example 289, 6-(2-hydroxypropyl)-2-{[4-(piperazin-1-yl)phenyl]amino}-8-(pyridin-2-yl)pyrimido[4,5-d]pyridazin-5(6H)-one] | 81
C=CCn1nc(-c2ccco2)c2nc(Nc3ccc4c(c3)CN(C)CC4)ncc2c1=O [Example 258, 8-(furan-2-yl)-2-[(2-methyl-1,2,3,4-tetrahydroisoquinolin-7-yl)amino]-6-(prop-2-en-1-yl)pyrimido[4,5-d]pyridazin-5(6H)-one] | 2
CC(C)n1nc(-c2ccncc2)c2nc(Nc3ccc(N4CCN(C)CC4)cc3)ncc2c1=O [Example 273, 2-{[4-(4-methylpiperazin-1-yl)phenyl]amino}-6-(propan-2-yl)-8-(pyridin-4-yl)pyrimido[4,5-d]pyridazin-5(6H)-one] | 11
COc1cc(N2CCC(N3CCN(C)CC3)CC2)ccc1Nc1ncc2c(=O)n(-c3c(Cl)cccc3Cl)nc(C)c2n1 [Example 363, 6-(2,6-dichlorophenyl)-2-({2-methoxy-4-[4-(4-methylpiperazin-1-yl)piperidin-1-yl]phenyl}amino)-8-methylpyrimido[4,5-d]pyridazin-5(6H)-one] | 40
CC1CCCC(C)C1n1nc(-c2ccccn2)c2nc(Nc3ccc(N4CCNCC4)cc3)ncc2c1=O (stereo not drawn) [Example 333, 6-(2,6-dimethylcyclohexyl)-2-{[4-(piperazin-1-yl)phenyl]amino}-8-(pyridin-2-yl)pyrimido[4,5-d]pyridazin-5(6H)-one] | 770
Cc1nn(-c2c(Cl)cncc2Cl)c(=O)c2cnc(Nc3ccc4c(c3)CN(C)CC43CC3)nc12 [Example 487, 6-(3,5-dichloropyridin-4-yl)-8-methyl-2-[(2′-methyl-2′,3′-dihydro-1′H-spiro[cyclopropane-1,4′-isoquinolin]-7′-yl)amino]pyrimido[4,5-d]pyridazin-5(6H)-one] | 0.27
COc1cc(Nc2ncc3c(=O)n(-c4ccccc4Cl)nc(-c4ccccc4)c3n2)ccc1N1CCN(C(C)C)CC1 [Example 207, 6-(2-chlorophenyl)-2-({3-methoxy-4-[4-(propan-2-yl)piperazin-1-yl]phenyl}amino)-8-phenylpyrimido[4,5-d]pyridazin-5(6H)-one] | 0.1
Cc1nn(-c2c(Cl)cccc2Cl)c(=O)c2cnc(Nc3ccc4c(c3)CN(C)C4(C)C)nc12 [Example 471, 6-(2,6-dichlorophenyl)-8-methyl-2-[(1,1,2-trimethyl-2,3-dihydro-1H-isoindol-5-yl)amino]pyrimido[4,5-d]pyridazin-5(6H)-one] | 0.16
Cc1nn(-c2c(Cl)cccc2Cl)c(=O)c2cnc(Nc3ccc4c(c3)CNC(=O)C4)nc12 [Example 467, 6-(2,6-dichlorophenyl)-8-methyl-2-[(3-oxo-1,2,3,4-tetrahydroisoquinolin-7-yl)amino]pyrimido[4,5-d]pyridazin-5(6H)-one] | 0.47
CN1Cc2cc(Nc3ncc4c(=O)n(-c5c(Cl)cccc5Cl)nc(-c5cn(C)cn5)c4n3)ccc2C2(CC2)C1 [Example 339, 6-(2,6-dichlorophenyl)-2-[(2′-methyl-2′,3′-dihydro-1′H-spiro[cyclopropane-1,4′-isoquinolin]-7′-yl)amino]-8-(1-methyl-1H-imidazol-4-yl)pyrimido[4,5-d]pyridazin-5(6H)-one] | 0.71
O=c1c2cnc(Nc3ccc(S(=O)(=O)N4CCOCC4)cc3)nc2c(-c2cccs2)nn1-c1ccccc1Cl [Example 165, 6-(2-chlorophenyl)-2-{[4-(morpholin-4-ylsulfonyl)phenyl]amino}-8-(2-thienyl)pyrimido[4,5-d]pyridazin-5(6H)-one] | > 3140
Cc1cccc(Cl)c1-n1nc(C)c2nc(Nc3ccc(NC4CCNCC4)cc3)ncc2c1=O [Example 524, 6-(2-chloro-6-methylphenyl)-8-methyl-2-{[4-(piperidin-4-ylamino)phenyl]amino}pyrimido[4,5-d]pyridazin-5(6H)-one] | 0.3
Cc1nn(-c2c(Cl)cccc2Cl)c(=O)c2cnc(Nc3ccc4c(c3)CNC4)nc12 [Example 451, 6-(2,6-dichlorophenyl)-2-(2,3-dihydro-1H-isoindol-5-ylamino)-8-methylpyrimido[4,5-d]pyridazin-5(6H)-one] | 0.19
CCc1nn(-c2c(Cl)cccc2Cl)c(=O)c2cnc(Nc3ccc(N4CCN(C)CC4)cc3)nc12 [Example 388, 6-(2,6-dichlorophenyl)-8-ethyl-2-{[4-(4-methylpiperazin-1-yl)phenyl]amino}pyrimido[4,5-d]pyridazin-5(6H)-one] | 0.33
Cc1nn(-c2c(Cl)cccc2Cl)c(=O)c2cnc(Nc3ccc4c(c3)CCN(C(=O)C(C)(C)O)C4)nc12 [Example 437, 6-(2,6-dichlorophenyl)-2-{[2-(2-hydroxy-2-methylpropanoyl)-1,2,3,4-tetrahydroisoquinolin-6-yl]amino}-8-methylpyrimido[4,5-d]pyridazin-5(6H)-one] | 0.8
Cc1cc(Nc2ncc3c(=O)n(-c4ccccc4Cl)nc(-c4ccccc4)c3n2)ccc1N1CCCN(C(C)C)CC1 [Example 206, 6-(2-chlorophenyl)-2-({3-methyl-4-[4-(propan-2-yl)-1,4-diazepan-1-yl]phenyl}amino)-8-phenylpyrimido[4,5-d]pyridazin-5(6H)-one] | 0.2
Cc1cccc(Cl)c1-n1nc(C)c2nc(Nc3ccc(NC4CCN(C)CC4)cc3)ncc2c1=O [Example 501, 6-(2-chloro-6-methylphenyl)-8-methyl-2-({4-[(1-methylpiperidin-4-yl)amino]phenyl}amino)pyrimido[4,5-d]pyridazin-5(6H)-one] | 0.32
Cc1nn(-c2c(Cl)cccc2Cl)c(=O)c2cnc(Nc3cccc(C(=O)NC4CCNCC4)c3)nc12 [Example 530, 3-{[6-(2,6-dichlorophenyl)-8-methyl-5-oxo-5,6-dihydropyrimido[4,5-d]pyridazin-2-yl]amino}-N-(piperidin-4-yl)benzamide] | 0.3
CC1CCCC(C)C1n1nc(-c2ccccn2)c2nc(Nc3ccc4c(c3)CN(C)CC4(C)C)ncc2c1=O (stereo not drawn) [Example 330, 6-(2,6-dimethylcyclohexyl)-8-(pyridin-2-yl)-2-[(2,4,4-trimethyl-1,2,3,4-tetrahydroisoquinolin-7-yl)amino]pyrimido[4,5-d]pyridazin-5(6H)-one] | 260
O=c1c2cnc(Nc3ccc4c(c3)CNCC4)nc2cnn1-c1c(Cl)cccc1Cl [Example 327, 6-(2,6-dichlorophenyl)-2-(1,2,3,4-tetrahydroisoquinolin-7-ylamino)pyrimido[4,5-d]pyridazin-5(6H)-one] | 0.93
